Values of other authors in patent US20260014105A1, “POWDER MIXTURE COMPRISING REPARIXIN” (Dompe' Farmaceutici SPA, priority 2022, published 2026).

Tested on: hospitalized patients with severe COVID-19 pneumonia

SMILES: CC(C)Cc1ccc([C@@H](C)C(=O)NS(C)(=O)=O)cc1 [reparixin, R-(−)-2-(4-isobutylphenyl)propionyl methansulfonamide]
- Clinical outcomes compared with the standard of care: improved clinical outcomes
